# In article PMC6600542 (Molecules, 2019):
# “And” between values parts separate entries of the source, which are not always exact repeats. Equal entries are not always repeated.
# Assays:
# [1] = system: human plasma deficient of FIX; assay: APTT clotting assay, FIX-deficient plasma; format: biochemical
# Procedure: (§1) For the PT assay, thromboplastin-D was reconstituted according to the manufacturer’s directions and warmed to 37 °C. […] After incubation for 4 min at 37 °C, clotting was initiated by adding 100 μL of prewarmed 25 mM CaCl2 and the time to clotting was noted. […] To determine the in vitro effect on the APTT of deficient human plasmas, the APTT assay was repeated, using human plasmas deficient of factor VII (FVII), factor IX (FIX), FXI, or factor XII (FXII). […] The positive control used in APTT and PT assays was rivaroxaban, a clinically used FXa inhibitor. Under the conditions reported, rivaroxaban doubled the APTT and PT at concentrations of 0.123 ± 0.003 µM and 0.193 ± 0.043 µM, respectively.
# [2] = system: human plasma deficient of FXI; assay: APTT clotting assay, FXI-deficient plasma; format: biochemical
# Procedure: as §1
# normal human plasma = assay: TT clotting assay, normal human plasma; format: biochemical; conditions: for concentration to double the TT: normal human plasma (text)
# human plasmin = human plasmin (Homo sapiens, UniProt P00747); assay: In vitro plasmin-mediated clot lysis (fibrinolysis) assay; format: biochemical; conditions: rate of clot lysis over 5–100 min, pH 7.4, 25 °C
# Sequence of human plasmin (P00747 581-810 limits assumed): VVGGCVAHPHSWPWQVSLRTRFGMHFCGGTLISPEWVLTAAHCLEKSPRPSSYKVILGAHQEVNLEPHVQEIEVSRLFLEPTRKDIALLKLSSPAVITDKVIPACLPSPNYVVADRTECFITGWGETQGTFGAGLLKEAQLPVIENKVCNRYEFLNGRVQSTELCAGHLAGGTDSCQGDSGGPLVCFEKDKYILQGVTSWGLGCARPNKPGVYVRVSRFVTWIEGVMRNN
# Sequence of human plasmin (P00747 97-580 partner limits assumed): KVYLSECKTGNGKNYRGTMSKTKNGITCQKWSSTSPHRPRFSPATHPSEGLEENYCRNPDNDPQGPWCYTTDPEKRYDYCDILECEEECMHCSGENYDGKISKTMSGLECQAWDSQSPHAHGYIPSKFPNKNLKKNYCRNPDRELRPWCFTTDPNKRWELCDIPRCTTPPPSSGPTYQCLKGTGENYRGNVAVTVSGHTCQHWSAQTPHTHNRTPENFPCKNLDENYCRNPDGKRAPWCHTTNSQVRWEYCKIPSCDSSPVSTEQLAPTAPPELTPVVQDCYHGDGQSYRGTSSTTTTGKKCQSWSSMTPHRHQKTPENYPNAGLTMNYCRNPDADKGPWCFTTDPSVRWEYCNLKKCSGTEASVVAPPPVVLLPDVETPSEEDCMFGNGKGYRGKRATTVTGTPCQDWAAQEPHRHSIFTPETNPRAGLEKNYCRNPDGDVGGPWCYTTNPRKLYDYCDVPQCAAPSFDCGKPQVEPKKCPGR
# Procedure: The method followed here was similar to that reported earlier. This in vitro experiment was conducted in 96-well platform in pH 7.4 buffer at 25 °C. The clot was generated by the addition of 80 µL of a solution of human thrombin (2.5 µg/mL) in 20 mM TrisHCl buffer containing 10 mM CaCl2 to 60 µL of a solution of fibrinogen (10 mg/mL) and FXIIIa (2 µg/mL) in 20 mM TrisHCl buffer containing 10 mM CaCl2. The resulting clot was stabilized for 15 min at 25 °C. The absorbance was then measured at 405 nm and was ~0.98 across all wells. […] Finally, 5 µL of human plasmin (stock of 1.6 µM) in 20 mM TrisHCl buffer of pH 7.4 containing 2.5 mM CaCl2 and 100 mM NaCl was added to each well and the A405 of each well was recorded over more than 340 min at various time intervals. […] (1) Y=Y0+YM−Y0/1+10^(log[I]0−logIC50)(HS)
# bovine trypsin = biological target: T1, bovine trypsin (Bos taurus, UniProt P00760); assay: Trypsin chromogenic substrate hydrolysis assay; format: biochemical; conditions: pH 7.4
# T1 construct: purchased Millipore-Sigma
# T1 sequence (P00760 24-246): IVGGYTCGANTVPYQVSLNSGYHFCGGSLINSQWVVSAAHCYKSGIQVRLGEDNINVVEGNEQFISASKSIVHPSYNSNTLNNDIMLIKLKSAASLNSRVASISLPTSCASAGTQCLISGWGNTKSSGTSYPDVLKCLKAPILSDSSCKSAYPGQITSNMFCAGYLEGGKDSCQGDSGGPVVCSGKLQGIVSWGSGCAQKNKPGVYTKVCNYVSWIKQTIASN
# Procedure: Direct inhibition of the human coagulation transglutaminase FXIIIa was also studied using a fluorescence-based transglutamination assay as reported in the literature.
# After 10 min incubation, 5 µL FXIa substrate (6.9 mM stock concentration) was rapidly added and the residual FXIa activity was measured from the initial rate of increase in absorbance at 405 nm. Assays were performed in similar fashion with trypsin and chymotrypsin. Stock concentrations used were 18.9 µg/mL (trypsin) and 22.7 mM (S-2222) for bovine trypsin assay (final volume was 200 µL) and 2 µg/mL (chymotrypsin) and 16.2 mM (N-Succinyl-Ala-Ala-Pro-Phe-p-nitroanilide) for bovine chymotrypsin assay (final volume was 200 µL). The buffer used for FXIa, trypsin, chymotrypsin assays was 50 mM Tris-HCl buffer, pH 7.4, containing 150 mM NaCl, 2.5 mM CaCl2, 0.1% PEG8000, and 0.02% Tween80. Neutrophil elastase inhibition assay was performed in a 96-well plate with a final volume of 100 µl with 0.125 M 4-(2-hydroxyethyl)-1-piperazineethanesulfonic acid (HEPES) buffer, pH 7.4 containing 0.125% Triton-X 100, as reported earlier. […] After incubation, 3 µL neutrophil elastase substrate (S-1384; 25 mM stock conc.) was rapidly added and the residual enzyme activity measured from the initial rate of increase in the absorbance at 405 nm.
# human FXa = human FXa (Homo sapiens, UniProt P00742); assay: Michaelis-Menten kinetics of Spectrozyme FXa hydrolysis by FXa; format: biochemical; conditions: for Km / VMAX of Spectrozyme FXa hydrolysis: pH 7.4, 37 °C
# Sequence of human FXa (P00742 235-488 limits assumed): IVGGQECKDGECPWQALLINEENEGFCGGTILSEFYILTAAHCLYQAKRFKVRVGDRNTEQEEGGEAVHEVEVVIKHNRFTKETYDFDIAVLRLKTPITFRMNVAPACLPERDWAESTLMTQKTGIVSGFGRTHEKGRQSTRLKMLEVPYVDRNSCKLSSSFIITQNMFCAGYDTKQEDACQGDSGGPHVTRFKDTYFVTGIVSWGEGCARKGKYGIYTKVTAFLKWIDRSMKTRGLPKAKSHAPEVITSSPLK
# Sequence of human FXa (P00742 41-179 partner limits assumed): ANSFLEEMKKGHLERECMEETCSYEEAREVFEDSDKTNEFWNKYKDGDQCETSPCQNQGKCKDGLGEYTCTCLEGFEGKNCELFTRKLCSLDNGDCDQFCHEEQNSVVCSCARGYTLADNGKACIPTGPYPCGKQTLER
# Procedure: The initial rate of Spectrozyme FXa hydrolysis by human FXa (87 nM) or that of Spectrozyme PL hydrolysis by human plasmin (120 nM) was monitored from the linear increase in absorbance at 405 nm corresponding to less than 10% consumption of the substrate. […] The data were fitted by Michaelis-Menten Equation (2) to determine KM (substrate affinity to the enzyme) and VMAX (maximum velocity of enzyme reaction). (2) Vi=VMAX×[S]/KM+[S]
# [3] = cited from earlier work
# [4] = parenteral administration, patients
smiles,measurement,setting,value
"N=C(N)c1ccc(OCCCCCOc2ccc(C(=N)N)cc2)cc1 [pentamidine isethionate, 4,4′-(pentane-1,5-diylbis(oxy))-dibenzimidamide]","APTTEC2×, concentration to double clotting time",[1],26.32 ± 3.52 µm
same,"APTTEC2×, concentration to double clotting time",[2],29.48 ± 3.88 µm
same,"TTEC2×, concentration to double clotting time","normal human plasma; TT assay, normal human plasma",158.17 ± 30.87 µm
same,concentration to double the TT,normal human plasma,158.17 µM and 158.17 ± 30.87 µM
same,concentration to double the TT,normal human plasma; listed as pentamidine,> 150 µM
same,HS (Hill slope) of clot lysis inhibition,human plasmin,1.2 ± 0.7
same,efficacy (ΔY) of clot lysis inhibition,human plasmin,~ 58%
same,IC50,human plasmin; read-out: IC50 of fibrinolysis (clot lysis) inhibition,~3.6 µM and 3.6 µM
same,HS,bovine trypsin,1.0 ± 0.2
same,IC50,bovine trypsin,4.9 ± 0.8 µM
same,∆Y (efficacy),bovine trypsin,116.8 ± 7.4%
same,Km,human FXa; 5 µM pentamidine isethionate,267 ± 21.2 µM
same,VMAX of Spectrozyme FXa hydrolysis,human FXa; 5 µM pentamidine isethionate,114.3 ± 4.7 mAU/min
same,Km,human FXa; 10 µM pentamidine isethionate,410 ± 18.2 µM
same,VMAX of Spectrozyme FXa hydrolysis,human FXa; 10 µM pentamidine isethionate,124.2 ± 3.3 mAU/min
same,Km,human FXa; 20 µM pentamidine isethionate,364 ± 36.6 µM
same,VMAX of Spectrozyme FXa hydrolysis,human FXa; 20 µM pentamidine isethionate,63.1 ± 3.6 mAU/min
same,Km,human FXa; 50 µM pentamidine isethionate,690 ± 63.1 µM
same,VMAX of Spectrozyme FXa hydrolysis,human FXa; 50 µM pentamidine isethionate,60.3 ± 3.8 mAU/min
same,decrease of VMAX of Spectrozyme FXa hydrolysis,human FXa; inhibitor 50 μM vs absence,~ 2.8 fold
same,increase of KM for Spectrozyme FXa,human FXa; inhibitor 50 μM vs absence,~ 2.3 fold
same,"anemia, incidence",[3]; [4],1%
same,"leukopenia, incidence",[3]; [4],10%
same,"thrombocytopenia, incidence",[3]; [4],3%
same,"blood clot formation, share of treated patients",[3]; treated patients,less than 1%
